Data published in PubChem BioAssay AID248 (DTP/NCI, 2004).
Where “and” joins values, the source holds several entries; their conditions need not be identical. Equal entries are not always repeated. Toxic doses and inconclusive results are not listed. Cut-off read from the data, not from the text of the source: active = T/C of 150% or more; inactive = T/C below 125%.

Test system: L1210 leukemia ip in BDF1 mice, survival T/C
Assay: NCI In Vivo Anticancer Drug Screen. Data for tumor model L1210 Leukemia (intraperitoneal) in B6D2F1 (BDF1) mice
Conditions: endpoint: mean survival time, higher = longer survival
Outline: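 In this screen, tumor-bearing mice given compound are compared to those given vehicle, and their survival values are reported as a treated-to-control quotient.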

[1] = dose: 50.0 mg/kg/injection, schedule: Q01DX009 (ip), vehicle: Klucel (hydroxypropylcellulose) (HPC)
[2] = dose: 100.0 mg/kg/injection, schedule: Q04DX003 (ip), vehicle: Klucel (hydroxypropylcellulose) (HPC)
[3] = dose: 200.0 mg/kg/injection, schedule: Q04DX003 (ip), vehicle: Klucel (hydroxypropylcellulose) (HPC)
[4] = dose: 400.0 mg/kg/injection, schedule: Q04DX003 (ip), vehicle: Klucel (hydroxypropylcellulose) (HPC)
[5] = dose: 100.0 mg/kg/injection, schedule: Q04DX002 (ip), vehicle: Klucel (hydroxypropylcellulose) (HPC)
[6] = dose: 200.0 mg/kg/injection, schedule: Q04DX002 (ip), vehicle: Klucel (hydroxypropylcellulose) (HPC)
[7] = dose: 100.0 mg/kg/injection, schedule: Q04DX003 (ip), vehicle: saline with Tween-80
[8] = dose: 200.0 mg/kg/injection, schedule: Q04DX003 (ip), vehicle: saline with Tween-80
[9] = dose: 400.0 mg/kg/injection, schedule: Q04DX003 (ip), vehicle: saline with Tween-80
[10] = dose: 50.0 mg/kg/injection, schedule: Q01DX009 (ip), vehicle: saline with Tween-80
[11] = dose: 100.0 mg/kg/injection, schedule: Q01DX009 (ip), vehicle: saline with Tween-80
[12] = dose: 100.0 mg/kg/injection, schedule: Q01DX009 (ip), vehicle: Klucel (hydroxypropylcellulose) (HPC)
[13] = dose: 200.0 mg/kg/injection, schedule: Q01DX009 (ip), vehicle: Klucel (hydroxypropylcellulose) (HPC)
[14] = dose: 100.0 mg/kg/injection, schedule: Q01DX001 (ip), vehicle: other
[15] = dose: 200.0 mg/kg/injection, schedule: Q01DX001 (ip), vehicle: other
[16] = dose: 100.0 mg/kg/injection, schedule: Q01DX001 (ip), vehicle: saline
[17] = dose: 200.0 mg/kg/injection, schedule: Q01DX001 (ip), vehicle: saline
[18] = dose: 400.0 mg/kg/injection, schedule: Q01DX001 (ip), vehicle: saline
[19] = dose: 400.0 mg/kg/injection, schedule: Q04DX002 (ip), vehicle: Klucel (hydroxypropylcellulose) (HPC)

Measured: T/C

CC1(CCC(=O)/C=C/c2ccccc2)CCC/C(=C/c2ccccc2)C1=O (stereo not drawn)
inactive: dose: 12.5 mg/kg/injection, schedule: Q01DX009 (ip), vehicle: Klucel (hydroxypropylcellulose) (HPC) 97 % of control | dose: 25.0 mg/kg/injection, schedule: Q01DX009 (ip), vehicle: Klucel (hydroxypropylcellulose) (HPC) 101 % of control | [1] 103 % of control | [2] 91 % of control | [3] 91 % of control | [4] 91 % of control

CCCCN1C(=O)C2C3CCC(O3)C2C1=O (stereo not drawn)
inactive: [5] 98 % of control | [6] 103 % of control

CCCC/C=C/C1C=CCCC1 (stereo not drawn)
inactive: dose: 50.0 mg/kg/injection, schedule: Q01DX009 (ip), vehicle: other 100 % of control | dose: 100.0 mg/kg/injection, schedule: Q01DX009 (ip), vehicle: other 95 % of control | dose: 200.0 mg/kg/injection, schedule: Q01DX009 (ip), vehicle: other 100 % of control

NNC(=O)c1ccc(O)cc1
inactive: [7] 95 % of control | [8] 101 % of control | [9] 97 % of control

CCCCCCC1N(C)CCCN1C
inactive: dose: 25.0 mg/kg/injection, schedule: Q01DX009 (ip), vehicle: saline with Tween-80 98 % of control | dose: 25.0 mg/kg/injection, schedule: Q04DX003 (ip), vehicle: saline with Tween-80 100 % of control | [10] 94 % of control | dose: 50.0 mg/kg/injection, schedule: Q04DX003 (ip), vehicle: saline with Tween-80 98 % of control | [11] 86 % of control | [7] 100 % of control and 103 % of control

COc1ccc(OC)c(NC(=O)Nc2cc([N+](=O)[O-])ccc2OC)c1
inactive: [1] 101 % of control | [12] 97 % of control | [13] 111 % of control

CCOC(=O)C(=CNc1cccc2cnccc12)C(=O)OCC
inactive: [10] 91 % of control | [11] 88 % of control | dose: 200.0 mg/kg/injection, schedule: Q01DX009 (ip), vehicle: saline with Tween-80 88 % of control

Oc1ccc(N=Cc2ccccc2O)cc1.[Co]
inactive: [14] 98 % of control | [15] 94 % of control | dose: 400.0 mg/kg/injection, schedule: Q01DX001 (ip), vehicle: other 102 % of control

O=C(CCl)NCc1ccc(Cl)cc1
inactive: dose: 50.0 mg/kg/injection, schedule: Q01DX001 (ip), vehicle: other 102 % of control | [14] 93 % of control | [15] 102 % of control

COc1ccc(OC)c2c(=O)c(C(=O)O)c[nH]c12
inactive: [16] 102 % of control | [17] 100 % of control | [18] 105 % of control

NC(CSS(=O)(=O)O)=NCCN1CCNC1=O
inactive: [5] 100 % of control | [6] 100 % of control | [19] 97 % of control

Cc1[nH]c(=S)[nH]c(=O)c1CCS
inactive: [16] 98 % of control | [17] 93 % of control | [18] 95 % of control

CC(C)=CCC(OC(=O)C=C(C)C)C1=CC(=O)c2c(O)ccc(O)c2C1=O (stereo not drawn)
inactive: dose: 6.25 mg/kg/injection, schedule: Q01DX009 (ip), vehicle: saline 93 % of control | dose: 6.25 mg/kg/injection, schedule: Q04DX003 (ip), vehicle: saline 98 % of control | dose: 12.5 mg/kg/injection, schedule: Q01DX009 (ip), vehicle: saline 92 % of control | dose: 12.5 mg/kg/injection, schedule: Q04DX003 (ip), vehicle: saline 101 % of control | dose: 25.0 mg/kg/injection, schedule: Q04DX003 (ip), vehicle: saline 104 % of control

CCCCCNC(=O)CCC
inactive: [12] 108 % of control | [2] 96 % of control | [13] 108 % of control | [3] 107 % of control | dose: 400.0 mg/kg/injection, schedule: Q01DX009 (ip), vehicle: Klucel (hydroxypropylcellulose) (HPC) 106 % of control | [4] 95 % of control

NC1=NC(c2ccc(Cl)cc2)N(c2ccc(S(=O)(=O)Nc3ncccn3)cc2)C(N)=N1 (stereo not drawn)
inactive: dose: 100.0 mg/kg/injection, schedule: Q04DX003 (ip), vehicle: saline 103 % of control | dose: 200.0 mg/kg/injection, schedule: Q04DX003 (ip), vehicle: saline 96 % of control | dose: 400.0 mg/kg/injection, schedule: Q04DX003 (ip), vehicle: saline 100 % of control

Nc1cccc(C(=O)NCc2cccnc2)c1
inactive: dose: 100.0 mg/kg/injection, schedule: Q04DX002 (ip), vehicle: saline 110 % of control | dose: 200.0 mg/kg/injection, schedule: Q04DX002 (ip), vehicle: saline 107 % of control | dose: 400.0 mg/kg/injection, schedule: Q04DX002 (ip), vehicle: saline 104 % of control

COC(=O)c1oc(C(=O)OC)c(OCc2ccccc2)c1OCc1ccccc1
inactive: [2] 103 % of control | [3] 106 % of control | [4] 95 % of control

NCCc1cnc[nH]1
inactive: dose: 50.0 mg/kg/injection, schedule: Q01DX009 (ip), vehicle: saline 89 % of control | dose: 100.0 mg/kg/injection, schedule: Q01DX009 (ip), vehicle: saline 106 % of control | dose: 200.0 mg/kg/injection, schedule: Q01DX009 (ip), vehicle: saline 89 % of control

CCCCCCCCCCCCCCCCCCn1cnc2ncnc(Cl)c21
inactive: dose: 12.5 mg/kg/injection, schedule: Q01DX005 (ip), vehicle: other 107 % of control | dose: 25.0 mg/kg/injection, schedule: Q01DX005 (ip), vehicle: other 102 % of control | dose: 50.0 mg/kg/injection, schedule: Q01DX005 (ip), vehicle: other 98 % of control | dose: 100.0 mg/kg/injection, schedule: Q01DX005 (ip), vehicle: other 106 % of control | dose: 200.0 mg/kg/injection, schedule: Q01DX005 (ip), vehicle: other 93 % of control

Cc1ccc([N+](=O)[O-])cc1NC(=O)OCC1CCCO1 (stereo not drawn)
inactive: [5] 87 % of control | [6] 87 % of control | [19] 97 % of control

CC(C)CCNC(=O)CS(=O)(=O)c1ccc(N)cc1
inactive: [7] 98 % of control | [8] 98 % of control | [9] 96 % of control

CCC(C)C(C=NCC(CCN(C)C)(c1ccc2ccccc2c1)C(C)CC)(CCN(C)C)c1ccc2ccccc2c1 (stereo not drawn)
inactive: dose: 12.5 mg/kg/injection, schedule: Q04DX002 (ip), vehicle: saline + alcohol 92 % of control | dose: 12.5 mg/kg/injection, schedule: Q04DX002 (ip), vehicle: saline with Tween-80 92 % of control | dose: 25.0 mg/kg/injection, schedule: Q04DX002 (ip), vehicle: saline + alcohol 92 % of control
